The results in this text go back to PubChem BioAssay (NCI).

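Test compounds were applied to cells in 96-well plates for 48 hours at 5 doses. At the TGI there is no net growth.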

Some test systems named below: IGROV1 ovarian; ACHN renal; T-47D breast; HOP-62 NSCLC; K-562 leukemia; HCT-15 colon; RXF 393 renal; SF-539 CNS; KM12 colon; MOLT-4 leukemia.
Assay in all cases: growth of human tumour cells (NCI), 48 h

Turning to `CC(C)N(C(C)C)S(=O)(=O)C[C@]12CC[C@H](CC13OCC(CS(=O)(=O)c1ccccc1)O3)C2(C)C` (stereo not given in full), the TGI in the experiment on IGROV1 ovarian is above 59.5 µM; in the experiment on ACHN renal, above 100 µM; in the experiment with T-47D breast it was above 100 µM; in the experiment with HOP-62 NSCLC, above 100 µM; in the experiment with K-562 leukemia, above 100 µM; in the experiment with HCT-15 colon, above 100 µM. Also, the TGI was above 100 µM with RXF 393 renal, above 100 µM with SF-539 CNS, above 100 µM with KM12 colon and 45.7 µM in the experiment with MOLT-4 leukemia.

`COC(=O)CCC(NC(=O)OC(C)(C)C)C(=O)NC(Cc1ccc(NC(=O)CCCC(C)=O)cc1)C(=O)NC(CCC(=O)OC)C(=O)OC` (stereo not given): the TGI with IGROV1 ovarian, in the experiment with ACHN renal, in the experiment with T-47D breast, with HOP-62 NSCLC, with K-562 leukemia and in the experiment with HCT-15 colon was above 100 µM in each case. The TGI with RXF 393 renal, in the experiment with SF-539 CNS, in the experiment on KM12 colon and with MOLT-4 leukemia was above 100 µM each time.

For the compound `N#Cc1c(-c2ccccc2)c(CN2CCCCC2)c(=O)n2c1[nH]c1ccccc12`, the TGI in the experiment with IGROV1 ovarian is above 100 µM; in the experiment with ACHN renal it was above 100 µM; in the experiment on T-47D breast, above 100 µM; in the experiment on HOP-62 NSCLC it was 91.5 µM; with K-562 leukemia, 60.9 µM; with HCT-15 colon it was above 100 µM. In addition, the TGI was above 100 µM with RXF 393 renal, above 100 µM in the experiment with SF-539 CNS, above 100 µM in the experiment with KM12 colon and 45.4 µM in the experiment on MOLT-4 leukemia.
